By ΔTm is commonly meant the change in melting temperature against a reference sample. In general, IC50 refers to the midpoint of a concentration-inhibition curve. The low end stands for inhibition by little substance, the high end for a need for much substance. As a reminder, the Ki is a dissociation constant, usually derived from enzyme kinetics or from competition with a known ligand. Low readings indicate higher affinity, high ones lower affinity.

Among the data in ChEMBL document CHEMBL1145498, “A systematic interaction map of validated kinase inhibitors with Ser/Thr kinases” (Proc Natl Acad Sci U S A, 2007) are ΔTm, IC50 and Ki values, retold here.

Assay [1] concerns the target Dual specificity protein kinase CLK1 (Homo sapiens) (UniProt P49759).
For assay [2], the target named is Serine/threonine-protein kinase 10 (Homo sapiens) (UniProt O94804).
Sequence of Serine/threonine-protein kinase 10 (Homo sapiens) (O94804 whole entry, looked up): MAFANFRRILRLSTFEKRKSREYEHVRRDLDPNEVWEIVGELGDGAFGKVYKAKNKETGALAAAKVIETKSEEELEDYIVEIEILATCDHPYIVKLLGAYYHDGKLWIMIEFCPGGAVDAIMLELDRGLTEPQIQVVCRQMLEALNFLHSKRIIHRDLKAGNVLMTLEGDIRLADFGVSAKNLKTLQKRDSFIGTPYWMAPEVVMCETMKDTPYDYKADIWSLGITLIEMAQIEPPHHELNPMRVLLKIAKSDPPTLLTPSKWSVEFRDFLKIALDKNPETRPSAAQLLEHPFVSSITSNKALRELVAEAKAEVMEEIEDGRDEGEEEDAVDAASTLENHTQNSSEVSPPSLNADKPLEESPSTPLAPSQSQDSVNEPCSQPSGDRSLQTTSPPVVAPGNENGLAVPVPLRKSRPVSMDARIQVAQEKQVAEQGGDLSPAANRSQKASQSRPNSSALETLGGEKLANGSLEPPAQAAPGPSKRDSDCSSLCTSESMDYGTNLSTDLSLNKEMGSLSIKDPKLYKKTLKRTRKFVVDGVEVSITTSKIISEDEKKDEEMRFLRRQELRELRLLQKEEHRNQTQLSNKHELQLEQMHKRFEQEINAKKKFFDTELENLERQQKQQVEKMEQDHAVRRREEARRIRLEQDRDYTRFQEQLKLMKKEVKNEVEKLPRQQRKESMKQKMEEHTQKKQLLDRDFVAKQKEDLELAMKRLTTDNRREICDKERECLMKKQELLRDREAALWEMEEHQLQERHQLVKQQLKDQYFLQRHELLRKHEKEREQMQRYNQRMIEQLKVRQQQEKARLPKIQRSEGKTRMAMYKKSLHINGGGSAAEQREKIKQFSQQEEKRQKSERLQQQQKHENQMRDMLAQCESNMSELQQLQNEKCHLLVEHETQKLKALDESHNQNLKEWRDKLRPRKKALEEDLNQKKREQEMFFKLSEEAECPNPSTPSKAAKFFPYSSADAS
Assay [3] is described as follows: Inhibition of Cdk4/cyclin D1.
The target of assay [4] is T1, Serine/threonine-protein kinase 4 (Homo sapiens) (UniProt Q13043).
T1 sequence (whole entry): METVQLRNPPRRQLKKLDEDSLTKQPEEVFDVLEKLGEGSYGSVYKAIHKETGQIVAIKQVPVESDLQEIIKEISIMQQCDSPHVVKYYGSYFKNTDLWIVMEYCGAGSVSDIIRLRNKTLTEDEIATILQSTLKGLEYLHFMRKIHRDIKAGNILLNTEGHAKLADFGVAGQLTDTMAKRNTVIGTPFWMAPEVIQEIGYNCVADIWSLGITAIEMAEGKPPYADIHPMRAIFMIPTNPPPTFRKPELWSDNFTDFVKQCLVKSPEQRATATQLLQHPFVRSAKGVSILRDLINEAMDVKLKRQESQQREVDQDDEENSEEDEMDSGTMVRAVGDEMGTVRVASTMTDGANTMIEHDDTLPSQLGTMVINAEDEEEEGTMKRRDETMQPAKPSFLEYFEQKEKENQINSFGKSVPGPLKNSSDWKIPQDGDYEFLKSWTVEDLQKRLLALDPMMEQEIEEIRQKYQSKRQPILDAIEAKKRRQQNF

Assay [5] deals with Dual specificity protein kinase CLK3 (Homo sapiens) (UniProt P49761).
Sequence of Dual specificity protein kinase CLK3 (Homo sapiens) (P49761 whole entry, looked up): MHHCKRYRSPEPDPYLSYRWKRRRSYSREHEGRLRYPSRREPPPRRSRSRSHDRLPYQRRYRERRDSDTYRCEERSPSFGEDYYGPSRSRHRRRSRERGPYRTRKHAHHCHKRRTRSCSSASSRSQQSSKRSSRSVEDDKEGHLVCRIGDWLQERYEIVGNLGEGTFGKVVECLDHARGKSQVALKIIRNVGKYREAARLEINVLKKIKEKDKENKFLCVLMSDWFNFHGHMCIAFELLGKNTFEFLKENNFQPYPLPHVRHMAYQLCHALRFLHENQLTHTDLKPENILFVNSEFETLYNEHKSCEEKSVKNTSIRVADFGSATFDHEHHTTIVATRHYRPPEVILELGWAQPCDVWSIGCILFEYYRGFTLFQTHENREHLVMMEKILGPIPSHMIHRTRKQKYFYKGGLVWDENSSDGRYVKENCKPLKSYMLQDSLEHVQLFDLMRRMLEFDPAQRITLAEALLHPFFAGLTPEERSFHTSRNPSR
The target in assay [6] is Calcium/calmodulin-dependent protein kinase type II subunit gamma (Homo sapiens) (UniProt Q13555).
Sequence of Calcium/calmodulin-dependent protein kinase type II subunit gamma (Homo sapiens) (Q13555 whole entry): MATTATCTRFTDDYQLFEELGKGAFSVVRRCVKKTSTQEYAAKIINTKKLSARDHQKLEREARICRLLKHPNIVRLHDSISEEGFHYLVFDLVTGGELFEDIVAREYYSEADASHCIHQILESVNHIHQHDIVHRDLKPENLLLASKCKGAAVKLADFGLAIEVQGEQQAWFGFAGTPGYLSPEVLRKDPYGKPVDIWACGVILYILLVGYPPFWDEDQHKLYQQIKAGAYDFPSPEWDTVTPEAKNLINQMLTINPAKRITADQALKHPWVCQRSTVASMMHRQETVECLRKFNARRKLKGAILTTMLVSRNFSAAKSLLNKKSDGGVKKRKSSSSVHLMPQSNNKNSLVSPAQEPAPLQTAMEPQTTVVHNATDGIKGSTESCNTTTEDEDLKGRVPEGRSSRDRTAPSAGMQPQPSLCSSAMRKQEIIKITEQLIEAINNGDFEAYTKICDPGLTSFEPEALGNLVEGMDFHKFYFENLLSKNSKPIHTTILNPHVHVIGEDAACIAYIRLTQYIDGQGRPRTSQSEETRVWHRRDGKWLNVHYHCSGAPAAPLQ
For assay [7], the target named is T2, Myotonin-protein kinase (Homo sapiens) (UniProt Q09013).
T2 sequence (whole entry): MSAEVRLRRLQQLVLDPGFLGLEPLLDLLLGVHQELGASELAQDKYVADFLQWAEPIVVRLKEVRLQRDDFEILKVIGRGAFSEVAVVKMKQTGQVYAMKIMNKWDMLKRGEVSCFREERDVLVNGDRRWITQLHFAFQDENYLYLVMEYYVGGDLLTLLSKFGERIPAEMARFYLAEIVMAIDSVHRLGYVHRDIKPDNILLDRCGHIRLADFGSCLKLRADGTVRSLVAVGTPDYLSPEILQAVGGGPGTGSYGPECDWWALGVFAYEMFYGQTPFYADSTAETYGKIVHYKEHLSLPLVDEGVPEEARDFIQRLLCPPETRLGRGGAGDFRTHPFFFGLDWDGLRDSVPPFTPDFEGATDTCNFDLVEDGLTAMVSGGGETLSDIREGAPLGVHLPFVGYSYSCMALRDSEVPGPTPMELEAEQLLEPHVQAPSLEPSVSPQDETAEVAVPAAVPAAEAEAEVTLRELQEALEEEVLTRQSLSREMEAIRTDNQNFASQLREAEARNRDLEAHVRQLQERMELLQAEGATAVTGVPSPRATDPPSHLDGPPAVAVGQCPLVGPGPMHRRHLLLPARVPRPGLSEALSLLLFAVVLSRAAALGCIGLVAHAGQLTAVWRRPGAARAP

Sequence of Dual specificity protein kinase CLK1 (Homo sapiens) (P49759 whole entry, looked up): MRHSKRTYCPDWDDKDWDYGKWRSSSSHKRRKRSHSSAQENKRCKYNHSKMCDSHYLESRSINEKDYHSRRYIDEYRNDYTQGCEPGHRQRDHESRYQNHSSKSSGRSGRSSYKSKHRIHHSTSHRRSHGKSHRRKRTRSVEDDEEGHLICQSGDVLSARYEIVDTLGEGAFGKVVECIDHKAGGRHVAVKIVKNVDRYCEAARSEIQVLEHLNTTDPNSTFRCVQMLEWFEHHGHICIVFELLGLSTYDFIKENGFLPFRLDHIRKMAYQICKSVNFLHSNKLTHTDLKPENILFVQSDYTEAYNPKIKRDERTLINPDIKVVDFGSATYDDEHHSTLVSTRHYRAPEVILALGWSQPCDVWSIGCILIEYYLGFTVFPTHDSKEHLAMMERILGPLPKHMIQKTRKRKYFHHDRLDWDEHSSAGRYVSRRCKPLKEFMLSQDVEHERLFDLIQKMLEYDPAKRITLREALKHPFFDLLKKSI

`COc1ccc2c(c1)/C(=C/c1cnc[nH]1)C(=O)N2` [SU-9516]: the ΔTm in assay [1] is 3.4 °C; in assay [2] it was 3.5 °C; in assay [4], 8.1 °C; in assay [5], 1.3 °C; in assay [6] it was 1 °C; in assay [7] it was 0.8 °C. Also, in assay [3], the IC50 was determined as 200 nM.

`COc1ccc(CNc2nc(N(CCO)CCO)nc3c2ncn3C(C)C)cc1`: the ΔTm in assay [1] is 2.4 °C; in assay [2] it was 0.7 °C; in assay [4], 0.4 °C; in assay [5], 0.6 °C; in assay [6], 0.3 °C; in assay [7], -0.1 °C. In assay [3], this compound had an IC50 of 215000 nM.

For `NS(=O)(=O)c1ccc(Nc2nc(OCC3CCCCC3)c3nc[nH]c3n2)cc1`, the ΔTm in assay [1] is 3.9 °C; in assay [2] it was 4.1 °C; in assay [4], 1.4 °C; in assay [5] it was 1.3 °C; in assay [6] it was 0.3 °C; in assay [7] it was 3.2 °C. In assay [3], this compound displayed an IC50 of 1600 nM.

For `CC(=O)O/N=C1/C(=C2/C(=O)Nc3cc(Br)ccc32)Nc2ccccc21` [6-BROMOINDIRUBIN-3'-ACETOXIME], the ΔTm in assay [1] is -0.3 °C; in assay [2], 0 °C; in assay [4], 3.5 °C; in assay [5], -0.4 °C; in assay [6] it was 2.4 °C; in assay [7], 0.7 °C. In assay [3], this compound yielded an IC50 of at least 10000 nM.

Take `CC(C)n1cnc2/c(=N/c3cccc(Cl)c3)nc(NCCO)[nH]c21`: the ΔTm amounted to 5.1 °C in assay [1]; 2 °C in assay [2]; 3.4 °C in assay [4]; 4 °C in assay [5]; 1.1 °C in assay [6]; 0.1 °C in assay [7].

On to `COc1cc2c(cc1OC)-c1n[nH]c(Nc3cccc(F)c3)c1C2`, for which the ΔTm is 0.1 °C in assay [1]; 2.5 °C in assay [2]; 0.7 °C in assay [4]; 0.4 °C in assay [5]; -0.1 °C in assay [6]; 2.4 °C in assay [7].

In the case of `CCCCc1c(-c2ccc(O)cc2)[nH]c2nccnc12` [ALOISINE A], the ΔTm in assay [1] is 3.5 °C; in assay [2], 5 °C; in assay [4] it was -0.2 °C; in assay [5], 1.5 °C; in assay [6] it was 1.1 °C; in assay [7] it was 6.1 °C.

Regarding `Cc1nc2sccn2c(=O)c1CCN1CCC(=C(c2ccccc2)c2ccc(F)cc2)CC1`, the ΔTm in assay [1] was 6.5 °C; in assay [2] it was 3.1 °C; in assay [4] it was 3.6 °C; in assay [5] it was 3 °C; in assay [6], 1.1 °C; in assay [7] it was 0.1 °C.

`Cc1nc(N)sc1-c1ccnc(Nc2cccc([N+](=O)[O-])c2)n1`: the ΔTm in assay [1] came out at 7 °C; in assay [2] it was 1.5 °C; in assay [4], 3 °C; in assay [5], 4 °C; in assay [6] it was 1 °C; in assay [7], 7.6 °C. For the same compound, in assay [3], the Ki worked out at 53 nM.

As for `Cc1ccc(NC2=CC(=O)c3sc(C)nc3C2=O)cc1`, the ΔTm in assay [1] was -0.8 °C; in assay [2], -0.7 °C; in assay [4], -1.3 °C; in assay [5], -0.5 °C; in assay [6] it was -2 °C; in assay [7], -2.4 °C.

`C/C(O)=C(\C#N)C(=O)Nc1cc(Br)ccc1Br`: the ΔTm in assay [1] is 0.5 °C; in assay [2], 0.9 °C; in assay [4], 0.2 °C; in assay [5], 0.3 °C; in assay [6] it was -0.1 °C; in assay [7] it was 0 °C.

Regarding `C[C@@H]1C[C@H]2O[C@@H]2/C=C\C=C\C(=O)Cc2c(Cl)c(O)cc(O)c2C(=O)O1` [RADICICOL], the ΔTm in assay [1] is 0 °C; in assay [2], -0.4 °C; in assay [4] it was 0.3 °C; in assay [5], 0 °C; in assay [6], 0 °C; in assay [7], -0.9 °C.

With `CSc1nc(-c2ccc(F)cc2)c(-c2ccnc(NC(C)c3ccccc3)c2)[nH]1` (racemic), the ΔTm in assay [1] is 0 °C; in assay [2], 1.9 °C; in assay [4], 1.3 °C; in assay [5], -0.2 °C; in assay [6] it was -0.3 °C; in assay [7], 1.3 °C.

Consider `Nc1cccc(-c2cc3c(Oc4cccc(O)c4)ncnc3[nH]2)c1`, for which the ΔTm in assay [1] came to 1.8 °C; in assay [2], 5.9 °C; in assay [4], 5.1 °C; in assay [5], 0.9 °C; in assay [6], 0.1 °C; in assay [7], 2.5 °C.

In the case of `CCOC(=O)c1c(C)[nH]c(/C=C2\C(=O)Nc3ccccc32)c1C`, the ΔTm in assay [1] was -1.1 °C; in assay [2], 1.6 °C; in assay [4] it was 3 °C; in assay [5], -0.1 °C; in assay [6] it was -0.1 °C; in assay [7], 0.5 °C.

As to `NC(=O)c1ccc2[nH]c(-c3ccc(Oc4ccc(Cl)cc4)cc3)nc2c1`, the ΔTm in assay [1] was 1.2 °C; in assay [2] it was 0.3 °C; in assay [4], -0.2 °C; in assay [5], 0.5 °C; in assay [6], -0.1 °C; in assay [7], 1.3 °C.

Turning to `COc1cc(OC)c(/C=C2\C(=O)Nc3ccccc32)c(OC)c1`, the ΔTm is 0.1 °C in assay [1]; 0.8 °C in assay [2]; -0.1 °C in assay [4]; 0 °C in assay [5]; 0 °C in assay [6]; 0.2 °C in assay [7].

On to `O=C1NC(=O)C(c2cn(CCCn3ccnc3)c3ccccc23)=C1Nc1ccccc1`, for which the ΔTm in assay [1] stood at 5.8 °C; in assay [2], 2 °C; in assay [4], 0.8 °C; in assay [5], 3 °C; in assay [6], 0.9 °C; in assay [7] it was 4.5 °C.

For `O=c1c2ccccc2[nH]c(=S)n1CCN1CCC(=C(c2ccc(F)cc2)c2ccc(F)cc2)CC1` [DIACYLGLYCEROL KINASE INHIBITOR II], the ΔTm in assay [1] was 0.3 °C; in assay [2], 3.6 °C; in assay [4], 2 °C; in assay [5] it was 0.2 °C; in assay [6] it was -0.5 °C; in assay [7] it was -0.7 °C.

Take `O=C1c2ccccc2-[n+]2ccc3c([nH]c4ccccc43)c21` [FASCAPLYSIN CHLORIDE]: the ΔTm in assay [1] is -1.9 °C; in assay [2] it was -1.8 °C; in assay [4] it was -1.6 °C; in assay [5], -0.9 °C; in assay [6], -1.8 °C; in assay [7], -0.9 °C.

In the case of `CCOc1cc2ncnc(Nc3cccc(Br)c3)c2cc1OCC`, the ΔTm is 2 °C in assay [1]; 10.3 °C in assay [2]; 2.2 °C in assay [4]; 0.3 °C in assay [5]; 0.5 °C in assay [6]; 0.5 °C in assay [7].

Consider `O=C1NC(=O)c2c1c1c3ccccc3n3c1c1c2c2ccccc2n1C1CCC3O1`, for which the ΔTm in assay [1] is 3.3 °C; in assay [2], -0.5 °C; in assay [4] it was 4.7 °C; in assay [5], 0.5 °C; in assay [6], 0 °C; in assay [7], 6.8 °C.

With `CN(C)CCCn1cc(C2=C(c3c[nH]c4ccccc34)C(=O)NC2=O)c2ccccc21` [GF-109203], the ΔTm in assay [1] stood at 6.3 °C; in assay [2], 6.7 °C; in assay [4], 5.7 °C; in assay [5] it was 2.7 °C; in assay [6], 2.9 °C; in assay [7], 3.9 °C.

As for `CN(c1cccnc1)c1cc2c(Nc3ccc(F)c(Cl)c3)c(C#N)cnc2cn1`, the ΔTm in assay [1] stood at 4.9 °C; in assay [2] it was 2.8 °C; in assay [4], 0.4 °C; in assay [5], 1.2 °C; in assay [6], 1.9 °C; in assay [7], 5.3 °C.

With `N#CC(C#N)=Cc1ccc(O)c(O)c1` [TYRPHOSTIN 23], the ΔTm was 0.7 °C in assay [1]; 0.5 °C in assay [2]; 0.6 °C in assay [4]; 0.4 °C in assay [5]; -0.1 °C in assay [6]; 0 °C in assay [7].

Turning to `COc1cc(O)c2c(c1)oc(=O)c1c3cc(O)c(O)cc3oc21` [WEDELOLACTONE], the ΔTm in assay [1] is 2.6 °C; in assay [2], 1.3 °C; in assay [4], 2.4 °C; in assay [5], 2.1 °C; in assay [6], 0.2 °C; in assay [7] it was 2.7 °C.
